Data set [1] has as its system HEK 293 (human embryonic kidney cells). Put plainly: Antiproliferative/cytotoxic activity in vitro on non-tumour cells, MTT, 72 h. Particulars: for IC50: Homo sapiens, HEK293, non-tumour cell line, concentration that causes 50% growth inhibition, 72 h, MTT. Type of data set: cell-based. On the procedure:
(§1) The experiments were performed on four human cell lines, including HCT 116 (colon carcinoma), H 460 (lung carcinoma), MCF-7 (breast carcinoma) and HEK 293 (human embryonic kidney cells), in line with previously published experimental procedures[10]^,[25]. Briefly, the cells were grown in DMEM medium with the addition of 10% foetal bovine serum (FBS), 2 mM L-glutamine, 100 U/mL penicillin and 100 µg/mL streptomycin, and cultured as monolayers at 37 °C in a humidified atmosphere with 5% CO2. Cells were seeded at 2 × 10^3 cells/well in a standard 96-well microtiter plates and left to attach for 24 h. Next day, a test compound was added in five serial 10-fold dilutions. The rate of cell growth was evaluated after 72 h of incubation with MTT reagent. The obtained results are expressed as IC50 values, calculated from the concentration-response curves using linear regression analysis by fitting the test concentrations that give PG values above and below the reference value (i.e. 50%). Each test was performed in quadruplicate in at least two individual experiments.

Data set [2] is described as follows: Ferric reducing/antioxidant power (FRAP assay). Particulars: triplicate; – = not active in the FRAP assay. Format: biochemical. On the procedure: The FRAP method was carried out according to previously described procedures with some modifications to be compatible with an assay on a 96-well microplate. All results were expressed as Fe^2+ equivalents (Fe^2+ µmol).

In data set [3] the test system is MCF-7 (breast carcinoma). Put plainly: Antiproliferative activity in vitro, MTT, 72 h. The note with it: Homo sapiens, MCF7, concentration that causes 50% growth inhibition. Type of data set: cell-based. On the procedure:
as §1

The test system of data set [4] is HCT116 (colon carcinoma). The data set is described as follows: Antiproliferative activity in vitro, MTT, 72 h. Type of data set: cell-based. The note with it: Homo sapiens, HCT-116, 72 h, concentration that causes 50% growth inhibition. On the procedure:
as §1

The nature of data set [5]: DPPH free radical scavenging (reducing activity of the stable radical DPPH). Type of data set: biochemical. The note with it: DPPH 50 µM in absolute ethanol; – = did not show any DPPH activity. On the procedure:
The reducing activity of investigated systems was achieved by the DPPH method according to previously described procedures with modifications to assure the use in a 96-well microplate. Briefly, equal volumes of various concentrations of tested molecules (dissolved in DMSO) were added to the solution of DPPH (final concentration 50 µM in absolute ethanol). Ethanol and DMSO were used as control solutions in line with earlier reports.[27]

The test system of data set [6] is Nrf2. The data set is described as follows: Western blot analysis of Nrf2 in cytoplasmic and nuclear fraction. Format: cell-based, human. The note with it: HCT116 cells, 1 h; 34 at 50 µM, 40 at 5 µM, hydrogen peroxide 4 mM. On the procedure:
Cell line HCT116 was seeded in 60 mm cell culture dishes (TPP, Switzerland) in a concentration of 9 × 10^5 cells/dish. Next day, the cells were treated with 4 mM hydrogen peroxide as a positive control for ROS induction and with compounds 34 and 40 (50 µM and 5 µM, respectively) for 1 h. Nuclear extracts from the cells were prepared using nuclear extraction buffer kit (Abcam, Cambridge, UK, ab113474) according to the manufacturer instructions. BCA assay (Sigma Aldrich, Taufkirchen, Germany) was performed for the determination of the protein concentration in nuclear and cytoplasm fractions. Denaturation of 1 μg of total proteins in Laemmli SDS loading buffer was performed at 95 °C for 5 min. After loading, 10% SDS poly-acrylamide gel electrophoresis was carried out and then proteins were transferred to nitrocellulose membranes. Afterwards, the membranes were blocked in blocking buffer (ImmobilonBlock – CH (Chemiluminescent Blocker), MerckKGaA, Darmstadt, Germany) and incubated 5 h at room temperature with primary antibody dissolved in ImmobilonBlock – CH (Chemiluminescent Blocker). After the membranes were washed three times for five minutes each with Tris-buffered saline with 0.5% Tween 20 (TBST), they were incubated in the corresponding secondary antibody for 1 h at room temperature or overnight at 4 °C. After washing with TBST, the membranes were processed for enhanced chemiluminescence (ECL) Clarity Max Western ECL Substrate (Bio-Rad Laboratories, Hercules, CA, USA) and captured using Odyssey Fc (LICOR, Bad Homburg, Germany). The primary antibody used was anti-Nrf2, (dilution 1:500, Anti-Nrf2 antibody: ab133347, Abcam), Histon H3 (dilution 1:2000, Anti-H3 antibody: Ab1791, Abcam), β-actin (dilution 1:500, sc-47778, Santa Cruz Biotechnology) and corresponding secondary HRP-conjugated IgG antibody (dilution 1:2000, mouse IgGκ, Santa Cruz Biotechnology).
Figure 5. Nrf2 protein levels in the cytoplasmic and the nuclear fraction of HCT116 cells, assessed by Western blot analysis. […]
(A western blot detects proteins with antibodies after separation by electrophoresis.)

In data set [7] the test system is H 460 (lung carcinoma). The data set is described as follows: Antiproliferative activity in vitro, MTT, 72 h. Format: cell-based, human. Particulars: Homo sapiens, NCI-H460, 72 h, concentration that causes 50% growth inhibition; 72 h, MTT. The method, then:
as §1

“And” between values parts separate entries of the source, which are not always exact repeats. Equal entries are not always repeated.

Broadly, the IC50 is the concentration needed to halve the response being measured. Consider `COc1ccc(C(=O)Nc2nc3ccc(C#N)cc3n2C)c(OC)c1` [Compound 34, N-(6-Cyano-1-methyl-1H-benzo[d]imidazol-2-yl)-2,4-dimethoxybenzamide], for which the 50% inhibitory concentration (IC50) is 93.3 ± 2.3 µM in data set [1]; 46.9 ± 35.4 µM in data set [3]; 47.6 ± 30 µM in data set [4]; ~5680 µM and 5680 µM in data set [5]; 21.9 ± 2.9 µM in data set [7]. Further, the FRAP in data set [2] was 618.10 mmolFe^2+/mmolC and 618.10 ± 66.10 mmolFe^2+/mmolC. In data set [6], the “translocation of Nrf2 to the nucleus (nuclear expression of Nrf2)” value (shortened to “translocation of Nrf2 to the nucleus”) was “did not promote the translocation of Nrf2 to the nucleus”.

On to `CC(C)Cn1c(NC(=O)c2ccccc2)nc2ccc(C#N)cc21` [Compound 40, N-(6-Cyano-1-isobutyl-1H-benzo[d]imidazol-2-yl)benzamide], for which, in data set [1] (HEK 293 versus tumour cancer cells), the “cytotoxicity towards non-tumour cell line compared with tumour cells” value is recorded as “significantly less cytotoxic towards non-tumour cell line HEK 293”. Moreover, the IC50 in data set [1] was 9.1 ± 1 µM; in data set [3] it was 2.2 ± 1.9 µM; in data set [4], around 0.6 µM; in data set [5], 11500 ± 1500 µM. Moreover, in data set [2], the FRAP stood at 203.50 ± 10.53 mmolFe^2+/mmolC. Also, the “translocation of Nrf2 to the nucleus” value in data set [6] is on record as “did not promote the translocation of Nrf2 to the nucleus”.

Turning to `OO` [hydrogen peroxide, reference compound], in data set [6], the “translocation of Nrf2 to the nucleus” value was “significantly higher in the nucleus”.
